Results on two molecules are retold here after US20050176691A1, “Combination therapy for the treatment of estrogen-sensitive disease” (priority 2000, published 2005).

The conditions of series [1]: during combination therapy with tamoxifen; persisted during months; cited from earlier work.
Series [2] deals with primary metabolizing enzyme(s). Description: Metabolism characteristics. Format: in vitro ADME.
A short description of a further series: Pharmacokinetic profile. Format: in vivo.
Series [3] is described as follows: Excretion characteristics. To be noted: in vivo.
Series [4] can be described thus: Other effects on ADME or PK (patient factors). To be noted: in vivo.
The subject of a further series is plasma protein. Description: Distribution: plasma protein binding. Format: in vitro ADME.
Series [5] is described as follows: Absorption characteristics. Particulars: in vivo.
Series [6] concerns estrogen receptor / enzyme (primary endocrine mechanism). Description: Endocrine effect.

Where two headings read alike, the source gives them in different places.

As a reminder, the Tmax is the time from dosing to the highest level. In general, fraction unbound refers to free concentration divided by total concentration. Higher therefore signals weak binding.

With `N#Cc1ccc(C(c2ccc(C#N)cc2)n2cncn2)cc1` [letrozole, 4,4′-(1H-1,2,4-triazol-1-ylmethylene)bis-benzonitrile], in series [1], the “mean reduction of plasma levels of letrozole vs single agent letrozole” value is recorded as 37%.
Regarding `CN(C)CCOc1ccc(/C(=C(/CCCl)c2ccccc2)c2ccccc2)cc1` [Toremifene, (Z)-2-[4-(4-chloro-1,2-diphenyl-1-butenyl)phenoxy]-N,N-dimethylethanamine], in series [2], the “induction of primary metabolizing enzyme” value is given as “no”, the “plasma levels affected by known inducers of cytochrome p-450 enzyme system” value is “yes”, the “primary enzyme(s) of metabolism” value is given as “CYP3A4” and the primary metabolite active entry is given as “yes”. In addition, in series [2], the significant pre-systemic metabolism result is given as “no”. Further, the “overall time to steady state” value in “Pharmacokinetic profile” (in vivo) is reported as 4-6 weeks. Besides, the half-life in “Pharmacokinetic profile” (in vivo, read-out: distribution t1/2 (time) (converted)) was 4 h. The half-life in “Pharmacokinetic profile” (in vivo, read-out: elimination t1/2 (time) (converted)) is 120 h. For the same molecule, the clearance in the series “Pharmacokinetic profile” (in vivo, read-out: total clearance (volume/unit time) (converted)) was 83.3 mL/min. Further, in the series “Pharmacokinetic profile” (plasma, oral), the Tmax amounted to 3 h. In series [3], the enterohepatic circulation entry is “yes” and the “primary route of elimination” value is given as “fecal”. The enterohepatic circulation entry in series [3] (listed as toremifene) is “subject to enterohepatic circulation”. In addition, in series [4], the “effect of race of patient on ADME or PK” value was “unexpected” and the “effect of sex of patient on ADME or PK” value is reported as “no known effect”. Moreover, the “principal plasma binding protein(s)” value in the series with plasma protein is recorded as “albumin”. The molecule further had a fraction unbound with plasma protein (plasma) of less than 0.005. Further, in series [5], the “Absorption: influenced by food” value is “no” and the “Absorption: route” value is recorded as “oral”. Moreover, in series [6], the “direct inhibition of primary mechanism by combination drug” value is recorded as “no” and the “feedback stimulation on combination drug's primary mechanism” value is reported as “yes”.
